Results published in patent US8859589B2 (priority 2008, dated 2014).
“And” between values parts separate entries of the source, which are not always exact repeats. Equal values may be shown once. Read-outs that look alike come from different tables or passages of the source.

Legend:
[1] = tested on: dUTPase deficient mutant strain of VV; format: cell-based, Vaccinia Virus
Cowpox Virus-BR = tested on: Cowpox Virus-BR; parameters: species or system BALB/c mice; settings: mouse, in vivo
[2] = tested on: thymidine kinase deficient mutant strain of VV; format: cell-based, Vaccinia Virus
in vitro [3] = assay: in vitro
[4] = tested on: wild-type VV (Vaccinia Virus); format: cell-based
VV or CV = tested on: VV or CV; parameters: species or system mice; settings: mouse, in vivo
CV = tested on: CV; parameters: species or system mice; settings: mouse, in vivo
in vitro [5] = assay: in vitro; remark: listed apart in the source
CV Cowpox Virus = format: cell-based
VV = tested on: VV; parameters: species or system mice; settings: mouse, in vivo

Structure (SMILES)	antiviral activity against mutant strain of VV [1]	MDD ± STDEV (Mean Day of Death) (Cowpox Virus-BR)	Mortality Number (Cowpox Virus-BR)	antiviral activity against mutant strain of VV [2]	CC50 (in vitro [3]) [µM]	effective concentration against wild-type VV [4]	reduction in mortality (VV or CV)	protection from mortality (CV)	CC50 (in vitro [5]) [µM]	effective concentration against CV (CV Cowpox Virus)	protection from mortality (VV)	Mortality Percent (Cowpox Virus-BR) [%]
O=c1[nH]c(=O)n([C@H]2C[C@H](O)[C@@H](CO)S2)cc1I [5-iodo-4′-thio-2′-deoxyuridine]	retained its antiviral activity	18.0 and 16.0 ± 2.8 and 14.0 and 14.0 ± 5.7	0/15 and 0/13 and 1/15 and 2/15	retained its antiviral activity	> 100	less than 1.0 μM	significant reduction in mortality	complete protection from mortality	> 100	less than 1.0 μM	completely protected	–
Nc1ccn(C[C@@H](CO)OCP(=O)(O)O)c(=O)n1 [Cidofovir, reference compound]	–	–	0/15 and 0/14	–	–	–	–	–	–	–	–	0
